Reference: US8222244B2, “Staurosporine derivatives as inhibitors of FLT3 receptor tyrosine kinase activity” (Novartis AG, priority 2001, dated 2012)

Biological target: T1, human Flt-3 (Homo sapiens, UniProt P36888)
T1 construct: expresses the amino acid region amino acids 563-993 of the intra-cytoplasmic kinase domains of human Flt-3; made in house; host or cells: Sf9 insect cells (baculovirus, pFbacG01 donor vector)
T1 sequence (P36888 563-993): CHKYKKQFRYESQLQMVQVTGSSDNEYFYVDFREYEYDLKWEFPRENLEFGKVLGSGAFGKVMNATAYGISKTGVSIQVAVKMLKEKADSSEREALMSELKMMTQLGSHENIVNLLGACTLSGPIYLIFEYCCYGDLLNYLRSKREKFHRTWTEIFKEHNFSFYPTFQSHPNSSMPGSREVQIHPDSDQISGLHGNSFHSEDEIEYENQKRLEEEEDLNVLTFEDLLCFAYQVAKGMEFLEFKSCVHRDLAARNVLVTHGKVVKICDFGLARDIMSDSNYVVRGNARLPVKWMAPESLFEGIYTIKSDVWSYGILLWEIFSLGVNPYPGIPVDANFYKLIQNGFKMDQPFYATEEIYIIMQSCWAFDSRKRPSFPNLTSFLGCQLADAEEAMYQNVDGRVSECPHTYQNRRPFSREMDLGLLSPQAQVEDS
Test: Tyrosine protein kinase assay with purified GST-Flt-3 (33P incorporation)
Format: biochemical
Conditions: at a 1.0 micromolar concentration
Method: ATP into appropriate substrates.
The coding sequences for the cytoplasmic domain of Flt-3 was amplified by PCR from human c-DNA libraries (Clontech). The amplified DNA fragments and the pFbacG01 vector were made compatible for ligation by digestion with BamH1 and Hind III. […] The production of the viruses, the expression of proteins in Sf9 cells and the purification of the GST-fused proteins were performed as following:
(Generation of Bac- to Bac GST-fusion vectors); pFbacG01, pFbacGST2T and pFbacGSTx3 Bac-to-Bac™ donor vectors were generated from pAcG1, pAcG2T and pAcG3X respectively, which facilitate the expression of GST-fusion proteins with the possibility of cleavage with thrombin (pFbacGT2) or factor Xa (pFbacGSTx3) while pFbacG01 expresses no proteolytic cleavage site. These were generated in house by isolation of the DNA fragment containing the gene for GST with the C-terminal protease and restriction sites by restriction enzyme digestion of the relevant PharMingen baculovirus donor vector with EcoRV and EcoRI. This EcoRV/EcoRI fragment was ligated into the pFastBac1 vector which had been restriction digested with BamHI, blunt-ended by Klenow reaction and subsequently digested with EcoRI to generate a blunt-ended/EcoRI vector. (Production of virus); Transfer vectors containing the kinase domains were transfected into the DH10Bac cell line (GIBCO) and plated on selective agar plates. Colonies without insertion of the fusion sequence into the viral genome (carried by the bacteria) are blue. Single white colonies were picked and viral DNA (bacmid) isolated from the bacteria by standard plasmid purification procedures. Sf9 cells or Sf21 cells were then transfected in 25 cm^2 flasks with the viral DNA using Cellfectin reagent. (Determination of small scale protein expression in Sf9 cells); Virus containing media was collected from the transfected cell culture and used for infection to increase its titer. Virus containing media obtained after two rounds of infection was used for large-scale protein expression. For large-scale protein expression 100 cm^2 round tissue culture plates were seeded with 5×10^7 cells/plate and infected with 1 mL of virus-containing media (approx. 5 MOIs). After 3 days the cells were scraped off the plate and centrifuged at 500 rpm for 5 min. Cell pellets from 10-20, 100 cm^2 plates, were resuspended in 50 mL of ice-cold lysis buffer (25 mMTris-HCl, pH7.5, 2 mMEDTA, 1% NP-40, 1 mM DTT, 1 mMP MSF). The cells were stirred on ice for 15 min and then centrifuged at 5000 rpms for 20 min.
ATP 0.1 μCi). […] ATP into appropriate substrates. […] Subsequently, 40 μL of the reaction mixture were transferred onto Immobilon-PVDF membrane (Millipore, Bedford, Mass., USA) previously soaked for 5 min with methanol, rinsed with water, then soaked for 5 min with 0.5% H3PO4 and mounted on vacuum manifold with disconnected vacuum source. After spotting all samples, vacuum was connected and each well rinsed with 200 μL 0.5% H3PO4. Membranes were removed and washed 4× on a shaker with 1.0% H3PO4, once with ethanol. Membranes were counted after drying at ambient temperature, mounting in Packard TopCount 96-well frame, and addition of 10 μL/well of Microscint™ (Packard). […] One unit of protein kinase activity is defined as 1 nmole of ^33P ATP transferred from [γ^33P] ATP to the substrate protein per minute per mg of protein at 37° C.

Molecule | Flt3 Inhibition (percent inhibition of Flt3 kinase activity)
11-[[N-Acetyl-1-O-methyl-4,6-O-(phenylmethylene)-a-normuramoyl]methylamino]-2,3,10,11,12,13-hexahydro-10-methoxy-9-methyl-9,13-epoxy-1H,9H-diindolo[1,2,3-gh:3′,2′,1′-lm]pyrrolo[3,4-j][1,7]benzodiazonin-1-one [149622-43-5] | 66%
11-[[N-Acetyl-1-deoxy-4,6-O-(phenylmethylene)muramoyl]methylamino]-2,3,10,11,12,13-hexahydro-10-methoxy-9-methyl-9,13-epoxy-1H,9H-diindolo[1,2,3-gh:3′,2′,1′-lm]pyrrolo[3,4-j][1,7]benzodiazonin-1-one [149622-49-1] | 74%
CO[C@@H]1[C@H](N(C)C(=O)CCC(=O)[O-])C[C@H]2O[C@]1(C)n1c3ccccc3c3c4c(c5c6ccccc6n2c5c31)C(=O)NC4.[Na+] [120685-10-1, [9S-(9a,10b,11b,13a)]-4-[(2,3,10,11,12,13-Hexahydro-10-methoxy-9-methyl-1-oxo-9,13-epoxy-1H,9H-diindolo[1,2,3-gh:3′,2′,1′-lm]pyrrolo[3,4-j][1,7]benzodiazonin-11-yl)methylamino]-4-oxo-butanoic acid, sodium salt] | 98%
COC1C(N(C)C(=O)C(F)(F)F)CC2OC1(C)n1c3ccccc3c3c4c(c5c6ccccc6n2c5c31)C(=O)NC4 [120685-12-3, 2,2,2-Trifluoro-N-[(9S,10R,11R,13R)-2,3,10,11,12,13-hexahydro-10-methoxy-9-methyl-1-oxo-9,13-epoxy-1H,9H-diindolo[1,2,3-gh:3′,2′,1′-lm]pyrrolo[3,4-j][1,7]benzodiazonin-11-yl]-N-methyl-acetamide] | 66%
CNC(=S)N(C)C1CC2OC(C)(C1OC)n1c3ccccc3c3c4c(c5c6ccccc6n2c5c31)C(=O)NC4 (stereo not drawn) [120685-13-4, (9a,10b,11b,13a)-N-(2,3,10,11,12,13-Hexahydro-10-methoxy-9-methyl-1-oxo-9,13-epoxy-1H,9H-diindolo[1,2,3-gh:3′,2′,1′-lm]pyrrolo[3,4-j][1,7]benzodiazonin-11-yl)-N,N′-dimethyl-thiourea] | 91%
COC1C(N(C)C(=O)c2cccc([N+](=O)[O-])c2)CC2OC1(C)n1c3ccccc3c3c4c(c5c6ccccc6n2c5c31)C(=O)NC4 (stereo not drawn) [120685-15-6, (9a,10b,11b,13a)-N-(2,3,10,11,12,13-Hexahydro-10-methoxy-9-methyl-1-oxo-9,13-epoxy-1H,9H-diindolo[1,2,3-gh:3′,2′,1′-lm]pyrrolo[3,4-j][1,7]benzodiazonin-11-yl)-N-methyl-3-nitro-benzamide] | 74%
COC1C(N(C)C(=O)c2cccc(F)c2)CC2OC1(C)n1c3ccccc3c3c4c(c5c6ccccc6n2c5c31)C(=O)NC4 (stereo not drawn) [120685-16-7, (9a,10b,11b,13a)-3-Fluoro-N-(2,3,10,11,12,13-hexahydro-10-methoxy-9-methyl-1-oxo-9,13-epoxy-1H,9H-diindolo[1,2,3-gh:3′,2′,1′-lm]pyrrolo[3,4-j][1,7]benzodiazonin-11-yl)-N-methyl-benzamide] | 60%
CO[C@@H]1[C@H](N(C)C(=O)OC(C)(C)C)C[C@H]2O[C@]1(C)n1c3ccccc3c3c4c(c5c6ccccc6n2c5c31)C(=O)NC4 [120685-17-8, [9S-(9a,10b,11b,13a)]-(2,3,10,11,12,13-Hexahydro-10-methoxy-9-methyl-1-oxo-9,13-epoxy-1H,9H-diindolo[1,2,3-gh:3′,2′,1′-lm]pyrrolo[3,4-j][1,7]benzodiazonin-11-yl)methyl-carbamic acid, 1,1-dimethylethyl ester] | 33%
COC1C(N(C)C(=O)c2cc([N+](=O)[O-])cc([N+](=O)[O-])c2)CC2OC1(C)n1c3ccccc3c3c4c(c5c6ccccc6n2c5c31)C(=O)NC4 (stereo not drawn) [120685-18-9, [9S-(9a,10b,11b,13a)]-N-(2,3,10,11,12,13-Hexahydro-10-methoxy-9-methyl-1-oxo-9,13-epoxy-1H,9H-diindolo[1,2,3-gh:3′,2′,1′-lm]pyrrolo[3,4-j][1,7]benzodiazonin-11-yl)-N-methyl-3,5-dinitro-benzamide] | 63%
COC(=O)CN(C)C1CC2OC(C)(C1OC)n1c3ccccc3c3c4c(c5c6ccccc6n2c5c31)C(=O)NC4 (stereo not drawn) [120685-21-4, [9S-(9a,10b,11b,13a)]-N-(2,3,10,11,12,13-Hexahydro-10-methoxy-9-methyl-1-oxo-9,13-epoxy-1H,9H-diindolo[1,2,3-gh:3′,2′,1′-lm]pyrrolo[3,4-j][1,7]benzodiazonin-11-yl)-N-methyl-glycine, methyl ester] | 82%
COC1C(N(C)CC(=O)O)CC2OC1(C)n1c3ccccc3c3c4c(c5c6ccccc6n2c5c31)C(=O)NC4 (stereo not drawn) [120685-22-5, [9S-(9a,10b,11b,13a)]-N-(2,3,10,11,12,13-Hexahydro-10-methoxy-9-methyl-1-oxo-9,13-epoxy-1H,9H-diindolo[1,2,3-gh:3′,2′,1′-lm]pyrrolo[3,4-j][1,7]benzodiazonin-11-yl)-N-methyl-glycine] | 98%
COC1C([N+](C)(C)C)CC2OC1(C)n1c3ccccc3c3c4c(c5c6ccccc6n2c5c31)C(=O)NC4.[I-] (stereo not drawn) [120685-26-9, [9S-(9a,10b,11b,13a)]-2,3,10,11,12,13-Hexahydro-10-methoxy-N,N,N,9-tetramethyl-1-oxo-9,13-epoxy-1H,9H-diindolo[1,2,3-gh:3′,2′,1′-lm]pyrrolo[3,4-j][1,7]benzodiazonin-11-aminium iodide] | 97%
CC[N+](C)(C)C1CC2OC(C)(C1OC)n1c3ccccc3c3c4c(c5c6ccccc6n2c5c31)C(=O)NC4.[I-] (stereo not drawn) [120685-28-1, N-Ethyl-[9S-(9a,10b,11b,13a)]-2,3,10,11,12,13-hexahydro-10-methoxy-N,N,9-trimethyl-1-oxo-9,13-epoxy-1H,9H-diindolo[1,2,3-gh:3′,2′,1′-lm]pyrrolo[3,4-j][1,7]benzodiazonin-11-aminium iodide] | 100%
C=CCNC(=S)N(C)C1CC2OC(C)(C1OC)n1c3ccccc3c3c4c(c5c6ccccc6n2c5c31)C(=O)NC4 (stereo not drawn) [120685-39-4, (9a,10b,11b,13a)-N-(2,3,10,11,12,13-Hexahydro-10-methoxy-9-methyl-1-oxo-9,13-epoxy-1H,9H-diindolo[1,2,3-gh:3′,2′,1′-lm]pyrrolo[3,4-j][1,7]benzodiazonin-11-yl)-N-methyl-N′-2-propenyl-thiourea] | 93%
COC1C(N(C)C(=O)c2ccc(F)cc2)CC2OC1(C)n1c3ccccc3c3c4c(c5c6ccccc6n2c5c31)C(=O)NC4 (stereo not drawn) [120685-44-1, (9a,10b,11b,13a)-4-Fluoro-N-(2,3,10,11,12,13-hexahydro-10-methoxy-9-methyl-1-oxo-9,13-epoxy-1H,9H-diindolo[1,2,3-gh:3′,2′,1′-lm]pyrrolo[3,4-j][1,7]benzodiazonin-11-yl)-N-methyl-benzamide] | 55%
